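Each compound was tested at five concentrations against cells in 96-well plates for 48 hours. TGI denotes the concentration required for complete inhibition of growth.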
Columns and labels:
Assay in all cases: NCI-60 cell line screen, 48 h
HCT-15 colon = test system: HCT-15 colon
SF-268 CNS = test system: SF-268 CNS
UACC-257 melanoma = test system: UACC-257 melanoma
OVCAR-3 ovarian = test system: OVCAR-3 ovarian
CAKI-1 renal = test system: CAKI-1 renal
OVCAR-4 ovarian = test system: OVCAR-4 ovarian
RPMI-8226 leukemia = test system: RPMI-8226 leukemia
NCI-H522 lung = test system: NCI-H522 lung
NCI-H23 lung = test system: NCI-H23 lung
SF-295 CNS = test system: SF-295 CNS
SNB-19 CNS = test system: SNB-19 CNS
SK-MEL-5 melanoma = test system: SK-MEL-5 melanoma
UACC-62 melanoma = test system: UACC-62 melanoma
XF 498 CNS = test system: XF 498 CNS
IGROV1 ovarian = test system: IGROV1 ovarian
SK-MEL-2 melanoma = test system: SK-MEL-2 melanoma
SNB-75 CNS = test system: SNB-75 CNS
SNB-78 CNS = test system: SNB-78 CNS
KM12 colon = test system: KM12 colon
HOP-62 NSCLC = test system: HOP-62 NSCLC
LOX IMVI melanoma = test system: LOX IMVI melanoma
HOP-18 NSCLC = test system: HOP-18 NSCLC
SN12C renal = test system: SN12C renal
UO-31 renal = test system: UO-31 renal
COLO 205 colon = test system: COLO 205 colon
SR leukemia = test system: SR leukemia
HT29 colon = test system: HT29 colon
U251 CNS = test system: U251 CNS
NCI-H226 lung = test system: NCI-H226 lung
LXFL 529 NSCLC = test system: LXFL 529 NSCLC
A498 renal = test system: A498 renal
M14 melanoma = test system: M14 melanoma
DMS 273 small cell lung = test system: DMS 273 small cell lung
CCRF-CEM leukemia = test system: CCRF-CEM leukemia
NCI-H460 lung = test system: NCI-H460 lung
HOP-92 NSCLC = test system: HOP-92 NSCLC
TK-10 renal = test system: TK-10 renal
EKVX NSCLC = test system: EKVX NSCLC
OVCAR-8 ovarian = test system: OVCAR-8 ovarian
786-0 renal = test system: 786-0 renal
M19-MEL melanoma = test system: M19-MEL melanoma
K-562 leukemia = test system: K-562 leukemia
A549 NSCLC = test system: A549 NSCLC
RXF 393 renal = test system: RXF 393 renal
MOLT-4 leukemia = test system: MOLT-4 leukemia
SW-620 colon = test system: SW-620 colon
HCT-116 colon = test system: HCT-116 colon
SF-539 CNS = test system: SF-539 CNS
MALME-3M melanoma = test system: MALME-3M melanoma
DLD-1 colon = test system: DLD-1 colon
HL-60(TB) leukemia = test system: HL-60(TB) leukemia
KM20L2 colon = test system: KM20L2 colon
SK-OV-3 ovarian = test system: SK-OV-3 ovarian
DMS 114 small cell lung = test system: DMS 114 small cell lung
OVCAR-5 ovarian = test system: OVCAR-5 ovarian
ACHN renal = test system: ACHN renal
HCC-2998 colon = test system: HCC-2998 colon
SK-MEL-28 melanoma = test system: SK-MEL-28 melanoma

Work on `O=C1OC2C(O)COC2(O)C1(O)Cc1c[nH]c2ccccc12` (stereo unspecified) yielded a TGI (HCT-15 colon) of over 100 µM, a TGI (SF-268 CNS) of over 100 µM and a TGI (UACC-257 melanoma) of over 100 µM. For the same compound, the TGI (OVCAR-3 ovarian) was over 100 µM, the TGI (CAKI-1 renal) was over 100 µM and the TGI (OVCAR-4 ovarian) was over 100 µM. For the same compound, the TGI (RPMI-8226 leukemia) was over 100 µM, the TGI (NCI-H522 lung) was over 100 µM and the TGI (NCI-H23 lung) was over 100 µM. The TGI (SF-295 CNS) was over 100 µM, the TGI (SNB-19 CNS) was over 100 µM and the TGI (SK-MEL-5 melanoma) was over 100 µM. The TGI (UACC-62 melanoma) was over 100 µM, the TGI (XF 498 CNS) was over 100 µM and the TGI (IGROV1 ovarian) was over 100 µM. It also gave a TGI (SK-MEL-2 melanoma) of over 100 µM, a TGI (SNB-75 CNS) of over 100 µM and a TGI (SNB-78 CNS) of over 100 µM. For the same compound, the TGI (KM12 colon) was over 100 µM, the TGI (HOP-62 NSCLC) was over 100 µM and the TGI (LOX IMVI melanoma) was over 100 µM. For the same compound, the TGI (HOP-18 NSCLC) was over 100 µM, the TGI (SN12C renal) was over 100 µM and the TGI (UO-31 renal) was over 100 µM. The TGI (COLO 205 colon) was over 100 µM, the TGI (SR leukemia) was over 100 µM and the TGI (HT29 colon) was over 100 µM. For the same compound, the TGI (U251 CNS) was over 100 µM, the TGI (NCI-H226 lung) was over 100 µM and the TGI (LXFL 529 NSCLC) was over 100 µM. For the same compound, the TGI (A498 renal) was over 100 µM, the TGI (M14 melanoma) was over 100 µM and the TGI (DMS 273 small cell lung) was over 100 µM. For the same compound, the TGI (CCRF-CEM leukemia) was over 100 µM, the TGI (NCI-H460 lung) was over 100 µM and the TGI (HOP-92 NSCLC) was over 100 µM. The TGI (TK-10 renal) was over 100 µM, the TGI (EKVX NSCLC) was over 100 µM and the TGI (OVCAR-8 ovarian) was over 100 µM. The TGI (786-0 renal) was over 100 µM, the TGI (M19-MEL melanoma) was over 100 µM and the TGI (K-562 leukemia) was over 100 µM. It also gave a TGI (A549 NSCLC) of over 100 µM, a TGI (RXF 393 renal) of over 100 µM and a TGI (MOLT-4 leukemia) of over 100 µM. For the same compound, the TGI (SW-620 colon) was over 100 µM, the TGI (HCT-116 colon) was over 100 µM and the TGI (SF-539 CNS) was over 100 µM. It also gave a TGI (MALME-3M melanoma) of over 100 µM, a TGI (DLD-1 colon) of over 100 µM and a TGI (HL-60(TB) leukemia) of over 100 µM. For the same compound, the TGI (KM20L2 colon) was over 100 µM, the TGI (SK-OV-3 ovarian) was over 100 µM and the TGI (DMS 114 small cell lung) was over 100 µM. For the same compound, the TGI (OVCAR-5 ovarian) was over 100 µM.
In the case of `FC(F)(F)C1(Cl)C(Cl)(c2ccccc2)C1(Cl)c1ccccc1` (stereo unspecified), the TGI (HCT-15 colon) is reported as 26.8 µM, the TGI (SF-268 CNS) is reported as 31.7 µM and the TGI (UACC-257 melanoma) is reported as 28.1 µM. The TGI (OVCAR-3 ovarian) was 28.1 µM, the TGI (CAKI-1 renal) was 25.6 µM and the TGI (OVCAR-4 ovarian) was 27.3 µM. The TGI (RPMI-8226 leukemia) was over 100 µM, the TGI (NCI-H23 lung) was 27.5 µM and the TGI (SF-295 CNS) was 29.4 µM. The TGI (ACHN renal) was 29.5 µM, the TGI (SNB-19 CNS) was 32.5 µM and the TGI (SK-MEL-5 melanoma) was 26.9 µM. It also gave a TGI (UACC-62 melanoma) of 29.7 µM, a TGI (XF 498 CNS) of 29.3 µM and a TGI (IGROV1 ovarian) of 26 µM. It also gave a TGI (SK-MEL-2 melanoma) of 29.1 µM, a TGI (SNB-75 CNS) of 29.9 µM and a TGI (SNB-78 CNS) of 33.2 µM. It also gave a TGI (KM12 colon) of 29 µM, a TGI (HOP-62 NSCLC) of 30 µM and a TGI (LOX IMVI melanoma) of 26.8 µM. The TGI (HOP-18 NSCLC) was 23.1 µM, the TGI (SN12C renal) was 28.6 µM and the TGI (UO-31 renal) was 28.1 µM. For the same compound, the TGI (COLO 205 colon) was 33.4 µM, the TGI (SR leukemia) was 25.8 µM and the TGI (HT29 colon) was 28.2 µM. It also gave a TGI (U251 CNS) of 28.3 µM, a TGI (NCI-H226 lung) of 27.4 µM and a TGI (LXFL 529 NSCLC) of 29.9 µM. The TGI (M14 melanoma) was 30.2 µM, the TGI (DMS 273 small cell lung) was 28.2 µM and the TGI (CCRF-CEM leukemia) was 55 µM. For the same compound, the TGI (NCI-H460 lung) was 30.5 µM, the TGI (HOP-92 NSCLC) was 24.8 µM and the TGI (TK-10 renal) was 32.8 µM. For the same compound, the TGI (EKVX NSCLC) was 30.1 µM, the TGI (OVCAR-8 ovarian) was 32.2 µM and the TGI (786-0 renal) was 29.5 µM. The TGI (M19-MEL melanoma) was 29 µM, the TGI (HCC-2998 colon) was 31.1 µM and the TGI (K-562 leukemia) was over 100 µM. The TGI (A549 NSCLC) was 28 µM, the TGI (RXF 393 renal) was 27.7 µM and the TGI (MOLT-4 leukemia) was 35.4 µM. For the same compound, the TGI (SW-620 colon) was 29.1 µM, the TGI (HCT-116 colon) was 24.8 µM and the TGI (SF-539 CNS) was 30.4 µM. It also gave a TGI (SK-MEL-28 melanoma) of 28.2 µM, a TGI (DLD-1 colon) of 29.1 µM and a TGI (HL-60(TB) leukemia) of over 100 µM. For the same compound, the TGI (KM20L2 colon) was 26.9 µM, the TGI (SK-OV-3 ovarian) was 54.7 µM and the TGI (DMS 114 small cell lung) was 29.2 µM. The TGI (OVCAR-5 ovarian) was 30 µM.
`O=C(CC1(O)C(=O)Nc2c(Cl)cc(Cl)cc21)c1ccco1` (stereo unspecified) showed a TGI (HCT-15 colon) of over 100 µM, a TGI (SF-268 CNS) of over 100 µM and a TGI (UACC-257 melanoma) of over 100 µM. For the same compound, the TGI (OVCAR-3 ovarian) was 57 µM, the TGI (CAKI-1 renal) was over 100 µM and the TGI (OVCAR-4 ovarian) was 40.8 µM. The TGI (RPMI-8226 leukemia) was 60.4 µM, the TGI (NCI-H522 lung) was over 100 µM and the TGI (NCI-H23 lung) was over 100 µM. For the same compound, the TGI (SF-295 CNS) was over 100 µM, the TGI (ACHN renal) was over 100 µM and the TGI (SNB-19 CNS) was over 100 µM. It also gave a TGI (SK-MEL-5 melanoma) of over 100 µM, a TGI (XF 498 CNS) of 67.8 µM and a TGI (SK-MEL-2 melanoma) of over 100 µM. It also gave a TGI (SNB-75 CNS) of over 100 µM, a TGI (SNB-78 CNS) of 99.5 µM and a TGI (KM12 colon) of over 100 µM. The TGI (HOP-62 NSCLC) was over 100 µM, the TGI (LOX IMVI melanoma) was over 100 µM and the TGI (HOP-18 NSCLC) was over 100 µM. The TGI (SN12C renal) was over 100 µM, the TGI (UO-31 renal) was over 100 µM and the TGI (COLO 205 colon) was over 100 µM. For the same compound, the TGI (HT29 colon) was over 100 µM, the TGI (U251 CNS) was over 100 µM and the TGI (NCI-H226 lung) was 71.4 µM. For the same compound, the TGI (LXFL 529 NSCLC) was over 100 µM, the TGI (M14 melanoma) was over 100 µM and the TGI (DMS 273 small cell lung) was over 100 µM. It also gave a TGI (CCRF-CEM leukemia) of 68.4 µM, a TGI (NCI-H460 lung) of over 100 µM and a TGI (HOP-92 NSCLC) of over 100 µM. The TGI (TK-10 renal) was over 100 µM, the TGI (EKVX NSCLC) was over 100 µM and the TGI (OVCAR-8 ovarian) was over 100 µM. For the same compound, the TGI (786-0 renal) was over 100 µM, the TGI (HCC-2998 colon) was over 100 µM and the TGI (K-562 leukemia) was over 100 µM. The TGI (A549 NSCLC) was over 100 µM, the TGI (RXF 393 renal) was over 100 µM and the TGI (MOLT-4 leukemia) was 59.1 µM. The TGI (SW-620 colon) was over 100 µM, the TGI (MALME-3M melanoma) was over 100 µM and the TGI (SK-MEL-28 melanoma) was over 100 µM. The TGI (DLD-1 colon) was over 100 µM, the TGI (HL-60(TB) leukemia) was 47.5 µM and the TGI (KM20L2 colon) was over 100 µM. For the same compound, the TGI (SK-OV-3 ovarian) was over 100 µM, the TGI (DMS 114 small cell lung) was 60 µM and the TGI (OVCAR-5 ovarian) was over 100 µM.
